Source: paper PMC7563358, “Prolonging the Half-Life of Histone Deacetylase Inhibitor Belinostat via 50 nm Scale Liposomal Subcutaneous Delivery System for Peripheral T-Cell Lymphoma” (Cancers, 2020)
Converted amounts (≈) assume the structure as drawn. Where two headings read alike, the source gives them in different places.

Tests used:
[1] = In vitro release by dialysis method with fitting to release models; assay type: physicochemical
Protocol: An in vitro release study was performed using a dialysis method. Dialysis bags with a molecular-weight cutoff of 6000–8000 Da (pore size 1.8 nm; Orange Scientific, Braine-l’Alleud, Belgium) were soaked with distilled deionized water for 12 h before the experiment. Dialysis bags containing SN38-loaded liposomes, or SN38 solution, were subsequently incubated in flasks containing 15 mL medium (phosphate buffered saline/ethanol 1:1 v/v) in a 37 °C water bath. At appropriate intervals, 500 μL aliquots of the medium were withdrawn for analysis and immediately replaced with an equal volume of fresh medium. Release kinetics were investigated using different models, including zero-order, first-order and Higuchi kinetics. Correlation coefficients and each release equation were calculated from the respective plots.

HuT-78 cells = assay: Cell cytotoxicity (CCK-8) on HuT-78; assay type: cell-based; details: Homo sapiens, HuT78; HuT-78, 72 h, CCK-8, n = 6
Protocol: (§1) The cutaneous T-cell lymphoma cell line (HuT-78) was purchased from the Bioresource Collection and Research Center (BCRC, Hsinchu, Taiwan). HuT-78 cells were incubated in 79% Iscove’s modified Dulbecco’s medium (IMDM) with 20% FBS and 1% liquid penicillin–streptomycin and kept in a humidified atmosphere containing 5% CO2 at 37 °C. HuT-78 cells were seeded on 96 well culture plates at a cell density of 1.5 × 10^5 cells per well. After overnight incubation, the medium was replaced with fresh medium containing belinostat free drug and belinostat-loaded liposomal formulations at final concentrations of 0.05, 0.1, 0.5, 1, 5 and 10 μM for 72 h. Cells were washed with PBS and reacted with 10 μL Cell Counting Kit-8 (CCK-8, Dojindo, Kumamoto, Japan) for 2 h. The absorbance was read at 450 nm by an enzyme-linked immunosorbent-assay reader (BioTek Epoch; Thermo Fisher Scientific, Waltham, MA, USA) to measure the quantity of surviving cells. IC50 was calculated using a four-parameter logistic function standard curve analysis of the dose response. The cell cytotoxicity was calculated using the following equation:(2) Cell viability %= ODsample−ODblank/ODcontrol−ODblank×100 % where OD denotes the optical density, ODcontrol represents 100% survival, and ODblank represents no cells.

[2] = In vivo pharmacokinetics after subcutaneous administration; details: Balb/c mice, single dose 0.333 mg/g
Protocol: The in vivo pharmacokinetic study was performed on healthy male BALB/c mice (weight: 16–20 g) obtained from the Laboratory Animal Center of the National Science Council, Taipei, Taiwan. All animal experiments were conducted in accordance with institutional guidelines and approved by the Animal Care and Use Committee of Kaohsiung Medical University, Kaohsiung, Taiwan (KMUIACUC-107146). All animals were starved overnight prior to the experiments.
BALB/c mice were anesthetized by halothane vapor with a vaporizer system. Mice were randomly divided into four groups, including the control group. Belinostat was dissolved in a mixture of 10% DMSO, 10% Cremophor EL, 80% water and a series of liposomal formulations (PC group, PS group, and PC/PS mixture group). It was then administered by subcutaneous injection with a dose of 0.33 mg/g. At time intervals of 5, 10 and 30 min and 1, 2, 3 and 4 h, 100 μL tail vein blood samples were collected in heparin-containing tubes (Vacutainer; BD, Franklin Lakes, NJ, USA) and immediately centrifuged at 3000× g for 10 min. The plasma was collected and stored at −20 °C. Mice were killed at the final time point and liver, spleen, lungs and kidneys were collected, washed with PBS and stored at −20 °C.
Plasma samples (40 μL) were mixed with 20 μL of internal standard solution (carbamazepine […]) and 1000 μL of methanol was added to induce protein precipitation. The mixture was centrifuged at 3000× g for 10 min and the supernatant was evaporated under vacuum for 2 h. The final dry residue was resuspended in methanol and analyzed by HPLC. Organs were homogenized in 1 mL PBS at 17,800 rpm for 30 s. Subsequently, following the same process, homogenized organs were mixed with internal standard solution and acetonitrile and analyzed by HPLC.
Correlation coefficients for the pharmacokinetic compartmental model were calculated and predicted using Phoenix WinNonlin V8.1 software (Certara, St. Louis, MO, USA). The area under the concentration–time curve (AUC0–∞) was calculated using the trapezoidal rule. Half-life (T½) and the clearance (Cl), volume of distribution (Vd), absorption rate (Ka) and elimination rate (Ke) were also calculated by software.

[3] = In vitro cytotoxicity of PBMCs; assay type: cell-based; details: male, human, peripheral blood mononuclear cells (PBMCs); 10 μM of belinostat
Protocol: as §1, with “Cells were washed with PBS and reacted with 10 μL Cell Counting Kit-8 (CCK-8, Dojindo, Kumamoto, Japan) for 2 h.” left out
Human peripheral blood mononuclear cells (PBMCs) were isolated from the peripheral blood from a healthy volunteer. […] After overnight incubation, the cytotoxicity assay was evaluated. […]

[4] = In vivo toxicity: complete blood count and liver function markers; details: balb/c mice, subcutaneous, 0.333 mg/g, four hours after treatment
Protocol: BALB/c mice were administered with subcutaneous injections with doses of 0.33 mg/g of belinostat free drug and belinostat-loaded liposomal formulations. […] Blood was analyzed for number of erythrocytes, platelets (Plt) and total white blood cells using an automated blood analyzer (XT-1800i; Sysmex, Kobe, Japan). Hemoglobin, red blood cells and hepatic function were also analyzed. Reference values were obtained from Charles River Laboratory. ALT and AST were also evaluated.

[5] = pH 7.4; cited from earlier work
[6] = set-up: method as in PMID 26921086; details: cited from earlier work
[7] = cited from earlier work

For `O=C(/C=C/c1cccc(S(=O)(=O)Nc2ccccc2)c1)NO` [belinostat, Belinostat], the “Time until release completely exhausted” value [1] was no more than 4 h, the Initial burst release ([1]; within 2 h) was 80% and the IC50 (HuT-78 cells) was 1800 ± 160 nM. The Cl ([2]; n = 3) was 404.50 ± 138.35 L/h/kg, the “Ka (absorption rate)” value ([2]; n = 3) was 5.06 ± 2.00 h⁻¹ and the Vd ([2]; n = 3) was 1735.75 ± 414.86 L/kg. For the same molecule, the AUC(0-inf) ([2]; male, mouse, plasma, sc, n = 3) was 17500 ± 5990 ng·h/mL, the Cmax ([2]; male, mouse, plasma, sc, n = 3) was 3390 ± 740 ng/mL and the Tmax ([2]; male, mouse, plasma, sc, n = 3) was 0.69 ± 0.31 h. It also gave a half-life ([2]; male, mouse, plasma, sc, n = 3) of 3.29 ± 1.84 h, a k el ([2]; male, mouse, plasma, sc, n = 3, read-out: Ke (elimination rate) (converted)) of 6.94e-05 s⁻¹ and a viability at 72 h, 10 µM [3] of 20%. For the same molecule, the ALT [4] was 125 ± 4.57 U/L, the Gra [4] was 13.47 ± 3.21% and the Hb [4] was 13.63 ± 2.16 g/dL. It also gave a Hct [4] of 39.58 ± 3.80%, a Lym [4] of 78.21 ± 6.56% and a Mon [4] of 10.95 ± 2.52%. For the same molecule, the Plt count [4] was 230 ± 45.72 10^9/L, the RBC count [4] was 9.29 ± 1.28 10^12/L and the ST [4] was 290 ± 34.48 U/L. The WBC count [4] was 3.42 ± 0.67 10^9/L, the Solubility [5] was 80 µg/mL (≈ 251 µM) and the half-life [6] was 1.1 h. The “Patients with low platelet count” value [7] was 10–29% and the “Patients with low red blood cell counts” value ([7]; intravenous (IV) infusion over 30 min) was “more than 30%”.
